# US9409905B2, “Antibacterial compounds and methods for use” (PTC THERAPEUTICS, INC., priority 2011, dated 2016)
# What was measured:
# [1] = tested on: Pseudomonas aeruginosa (P. aeruginosa) 27853; experiment: Antibacterial activity, MIC (Table 5); assay type: cell-based; settings: P. aeruginosa 27853, read-out: MIC, 27853
# Procedure, shortened: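 Using a microbroth dilution format, the minimum inhibitory concentration was recorded as the lowest tested concentration that stopped visible bacterial growth, expressed in μg/mL.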
# [2] = tested on: Staphylococcus aureus (S. aureus) 29213; experiment: Antibacterial activity, microbroth dilution MIC (Table 1); assay type: cell-based; settings: microbroth dilution, Gram-positive S. aureus 29213, read-out: MIC, 29213
# Procedure, shortened: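 Values are MICs (μg/mL): the smallest drug amount at which macroscopically visible bacterial growth is absent under assay conditions, from a microdilution method in broth.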
# [3] = tested on: Escherichia coli (E. coli) BAS849; experiment: as above; assay type: cell-based; settings: microbroth dilution, super sensitive Gram-negative E. coli BAS849, read-out: MIC, BAS849
# Procedure, shortened: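 Using broth microdilution, MIC endpoints (μg/mL) mark where visible growth no longer appears; the panel spans sensitive and control Gram-negative strains plus a Gram-positive strain.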
# [4] = tested on: Acinetobacter baumannii (A. baumannii) BAA747; experiment: Antibacterial activity, MIC (Table 4); assay type: cell-based; settings: A. baumannii BAA747, read-out: MIC, BAA747
# Procedure, shortened: (§1)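 Broth microdilution; MIC (μg/mL) = lowest concentration with no macroscopically visible growth. Resistant strains: multi-drug resistant clinical isolates.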
# [5] = tested on: Klebsiella pneumoniae (K. pneumoniae) 35657; experiment: Antibacterial activity, MIC (Table 4); assay type: cell-based; settings: K. pneumoniae 35657, read-out: MIC, 35657
# Procedure, shortened: as §1
# [6] = tested on: E. coli ELZ4251; experiment: Antibacterial activity, MIC, multi-drug resistant clinical isolate (Table 3); assay type: cell-based; settings: Escherichia coli
# Procedure, shortened: (§2)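 Values derive from a microbroth dilution method, taking as MIC (μg/mL) the lowest tested concentration without macroscopically visible growth.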
# [7] = tested on: E. coli ELZ4000; experiment: as above; assay type: cell-based; settings: Escherichia coli, ELZ4000, read-out: MIC ELZ4000
# Procedure, shortened: as §2
# [8] = tested on: Moraxella catarrhalis (M. catarrhalis) 25238; experiment: Antibacterial activity, MIC (Table 7); assay type: cell-based
# Procedure, shortened: (§3)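 Read-out: absence of macroscopically visible growth. The lowest inhibiting concentration from the microbroth dilution series is reported as MIC in μg/mL.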
# [9] = tested on: Haemophilus influenzae (H. influenzae) 49247; experiment: Antibacterial activity, MIC (Table 6); assay type: cell-based
# Procedure, shortened: as §3
# [10] = tested on: Neisseria meningitidis (N. meningitidis) 13090; experiment: Antibacterial activity, MIC (Table 8); assay type: cell-based
# Procedure, shortened: as §3
# [11] = tested on: E. coli LZ3111; experiment: Antibacterial activity, MIC, quinolone resistant strain (Table 2); assay type: cell-based; settings: Escherichia coli, LZ3111, read-out: MIC LZ3111
# Procedure, shortened: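 Growth inhibition assessed by serial drug dilution in broth; endpoint was absence of macroscopically visible growth, reported as MIC, μg/mL.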
# [12] = tested on: E. coli 25922; experiment: Antibacterial activity, microbroth dilution MIC (Table 1); assay type: cell-based, Escherichia coli; settings: Escherichia coli; microbroth dilution; control Gram-negative E. coli 25922 strain; read-out: MIC, 25922
# Procedure, shortened: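 Potency is reported as minimum inhibitory concentration in μg/mL, determined by broth microdilution as the lowest level of compound that stops growth visible to the eye.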
# [13] = tested on: A. baumannii MXX2240; experiment: Antibacterial activity, MIC, resistant strain (Table 4); assay type: cell-based; settings: Acinetobacter baumannii, MXX2240; resistant A. baumannii MMX2240, multi-drug resistant clinical isolate; read-out: MIC, MMX2240
# Procedure, shortened: as §1
# [14] = tested on: K. pneumoniae MXX1232; experiment: as above; assay type: cell-based; settings: Klebsiella pneumoniae, MXX1232; resistant K. pneumoniae MMX1232, multi-drug resistant clinical isolate; read-out: MIC, MMX1232
# Procedure, shortened: as §1
structure (smiles),measurement,setting,value
"CCc1c(-c2ccc3c(c2)cc(CNCC2CCCCN2C)n3C)[nH]c(=O)c(C(=O)O)c1O.Cl.Cl (stereo not drawn) [Cpd 233, 5-ethyl-4-hydroxy-6-(1-methyl-2-((((1-methylpiperidin-2-yl)methyl)amino)methyl)-1H-indol-5-yl)-2-oxo-1,2-dihydropyridine-3-carboxylic acid dihydrochloride]",MIC,[1],12.5 to 150 µg/mL
same,MIC,[2],12.5 to 150 µg/mL
same,MIC,[3],< 1 µg/mL
same,MIC,[4],12.5 to 150 µg/mL
same,MIC,[5],1 to 3.5 µg/mL
same,MIC,[6],12.5 to 150 µg/mL
same,MIC,[7],12.5 to 150 µg/mL
same,MIC,[8],3.5 to 12.5 µg/mL
same,MIC,[9],3.5 to 12.5 µg/mL
same,MIC,[10],1 to 3.5 µg/mL
same,MIC,[11],1 to 3.5 µg/mL
same,MIC,[12],1 to 3.5 µg/mL
same,MIC,[13],12.5 to 150 µg/mL
same,MIC,[14],12.5 to 150 µg/mL
"CCc1c(-c2ccc3c(c2)cc(CNCC2CCN(C)CC2)n3C)[nH]c(=O)c(C(=O)O)c1O.Cl.Cl [Cpd 234, 5-ethyl-4-hydroxy-6-(1-methyl-2-((((1-methylpiperidin-4-yl)methyl)amino)methyl)-1H-indol-5-yl)-2-oxo-1,2-dihydropyridine-3-carboxylic acid dihydrochloride]",MIC,[1],12.5 to 150 µg/mL
same,MIC,[2],12.5 to 150 µg/mL
same,MIC,[3],< 1 µg/mL
same,MIC,[4],12.5 to 150 µg/mL
same,MIC,[5],1 to 3.5 µg/mL
same,MIC,[6],12.5 to 150 µg/mL
same,MIC,[7],12.5 to 150 µg/mL
same,MIC,[8],3.5 to 12.5 µg/mL
same,MIC,[9],1 to 3.5 µg/mL
same,MIC,[10],1 to 3.5 µg/mL
same,MIC,[11],1 to 3.5 µg/mL
same,MIC,[12],1 to 3.5 µg/mL
same,MIC,[13],12.5 to 150 µg/mL
same,MIC,[14],12.5 to 150 µg/mL
"CCc1c(-c2ccc3c(c2)cc(CNCC2CCC2)n3C)[nH]c(=O)c(C(=O)O)c1O.Cl [Cpd 235, 6-(2-((cyclobutylmethylamino)methyl)-1-methyl-1H-indol-5-yl)-5-ethyl-4-hydroxy-2-oxo-1,2-dihydropyridine-3-carboxylic acid hydrochloride]",MIC,[1],12.5 to 150 µg/mL
same,MIC,[2],3.5 to 12.5 µg/mL
same,MIC,[3],< 1 µg/mL
same,MIC,[4],< 1 µg/mL
same,MIC,[5],1 to 3.5 µg/mL
same,MIC,[6],3.5 to 12.5 µg/mL
same,MIC,[7],12.5 to 150 µg/mL
same,MIC,[8],< 1 µg/mL
same,MIC,[9],< 1 µg/mL
same,MIC,[10],< 1 µg/mL
same,MIC,[11],3.5 to 12.5 µg/mL
same,MIC,[12],< 1 µg/mL
same,MIC,[13],3.5 to 12.5 µg/mL
same,MIC,[14],12.5 to 150 µg/mL
"CCc1c(-c2ccc3c(c2)cc(CNCC2CCCC2)n3C)[nH]c(=O)c(C(=O)O)c1O.Cl [Cpd 236, 6-(2-((cyclopentylmethylamino)methyl)-1-methyl-1H-indol-5-yl)-5-ethyl-4-hydroxy-2-oxo-1,2-dihydropyridine-3-carboxylic acid hydrochloride]",MIC,[1],12.5 to 150 µg/mL
same,MIC,[2],3.5 to 12.5 µg/mL
same,MIC,[3],< 1 µg/mL
same,MIC,[4],1 to 3.5 µg/mL
same,MIC,[5],1 to 3.5 µg/mL
same,MIC,[6],12.5 to 150 µg/mL
same,MIC,[7],12.5 to 150 µg/mL
same,MIC,[8],< 1 µg/mL
same,MIC,[9],1 to 3.5 µg/mL
same,MIC,[10],< 1 µg/mL
same,MIC,[11],3.5 to 12.5 µg/mL
same,MIC,[12],< 1 µg/mL
same,MIC,[13],1 to 3.5 µg/mL
same,MIC,[14],12.5 to 150 µg/mL
"CCc1c(-c2ccc3c(c2)cc(CN2CCCN(C)CC2)n3C)[nH]c(=O)c(C(=O)O)c1O.Cl.Cl [Cpd 238, 5-ethyl-4-hydroxy-6-(1-methyl-2-((4-methyl-1,4-diazepan-1-yl)methyl)-1H-indol-5-yl)-2-oxo-1,2-dihydropyridine-3-carboxylic acid dihydrochloride]",MIC,[1],12.5 to 150 µg/mL
same,MIC,[2],3.5 to 12.5 µg/mL
same,MIC,[3],< 1 µg/mL
same,MIC,[4],3.5 to 12.5 µg/mL
same,MIC,[5],1 to 3.5 µg/mL
same,MIC,[6],12.5 to 150 µg/mL
same,MIC,[7],12.5 to 150 µg/mL
same,MIC,[8],1 to 3.5 µg/mL
same,MIC,[9],< 1 µg/mL
same,MIC,[10],< 1 µg/mL
same,MIC,[11],1 to 3.5 µg/mL
same,MIC,[12],1 to 3.5 µg/mL
same,MIC,[13],12.5 to 150 µg/mL
same,MIC,[14],12.5 to 150 µg/mL
"CCc1c(-c2ccc3c(c2)cc(CC2CC2C)n3C)[nH]c(=O)c(C(=O)O)c1O.Cl (stereo not drawn) [Cpd 240, 5-ethyl-4-hydroxy-6-(1-methyl-2-((2-methylcyclopropyl)methyl)-1H-indol-5-yl)-2-oxo-1,2-dihydropyridine-3-carboxylic acid hydrochloride]",MIC,[1],3.5 to 12.5 µg/mL
same,MIC,[2],3.5 to 12.5 µg/mL
same,MIC,[3],< 1 µg/mL
same,MIC,[4],< 1 µg/mL
same,MIC,[5],< 1 µg/mL
same,MIC,[6],3.5 to 12.5 µg/mL
same,MIC,[7],12.5 to 150 µg/mL
same,MIC,[8],< 1 µg/mL
same,MIC,[9],< 1 µg/mL
same,MIC,[10],< 1 µg/mL
same,MIC,[11],3.5 to 12.5 µg/mL
same,MIC,[12],< 1 µg/mL
same,MIC,[13],1 to 3.5 µg/mL
same,MIC,[14],12.5 to 150 µg/mL
"CCc1c(-c2ccc3c(c2)cc(CNC2(C)CCC2)n3C)[nH]c(=O)c(C(=O)O)c1O.Cl [Cpd 245, 5-ethyl-4-hydroxy-6-(1-methyl-2-((1-methylcyclobutylamino)methyl)-1H-indol-5-yl)-2-oxo-1,2-dihydropyridine-3-carboxylic acid hydrochloride]",MIC,[1],3.5 to 12.5 µg/mL
same,MIC,[2],3.5 to 12.5 µg/mL
same,MIC,[3],< 1 µg/mL
same,MIC,[4],< 1 µg/mL
same,MIC,[5],< 1 µg/mL
same,MIC,[6],1 to 3.5 µg/mL
same,MIC,[7],3.5 to 12.5 µg/mL
same,MIC,[8],< 1 µg/mL
same,MIC,[9],< 1 µg/mL
same,MIC,[10],< 1 µg/mL
same,MIC,[11],1 to 3.5 µg/mL
same,MIC,[12],< 1 µg/mL
same,MIC,[13],1 to 3.5 µg/mL
same,MIC,[14],12.5 to 150 µg/mL
"CCc1c(-c2ccc3c(c2)cc(CN2CCC(C)CC2)n3C)[nH]c(=O)c(C(=O)O)c1O [Cpd 247, 5-ethyl-4-hydroxy-6-(1-methyl-2-((4-methylpiperidin-1-yl)methyl)-1H-indol-5-yl)-2-oxo-1,2-dihydropyridine-3-carboxylic acid]",MIC,[1],12.5 to 150 µg/mL
same,MIC,[2],3.5 to 12.5 µg/mL
same,MIC,[3],< 1 µg/mL
same,MIC,[4],1 to 3.5 µg/mL
same,MIC,[5],1 to 3.5 µg/mL
same,MIC,[6],12.5 to 150 µg/mL
same,MIC,[7],12.5 to 150 µg/mL
same,MIC,[8],< 1 µg/mL
same,MIC,[9],1 to 3.5 µg/mL
same,MIC,[10],< 1 µg/mL
same,MIC,[11],3.5 to 12.5 µg/mL
same,MIC,[12],< 1 µg/mL
same,MIC,[13],1 to 3.5 µg/mL
same,MIC,[14],12.5 to 150 µg/mL
"CCc1c(-c2ccc3c(c2)cc(CN2CCC(N(C)C)CC2)n3C)[nH]c(=O)c(C(=O)O)c1O [Cpd 248, 6-(2-((4-(dimethylamino)piperidin-1-yl)methyl)-1-methyl-1H-indol-5-yl)-5-ethyl-4-hydroxy-2-oxo-1,2-dihydropyridine-3-carboxylic acid]",MIC,[1],12.5 to 150 µg/mL
same,MIC,[2],3.5 to 12.5 µg/mL
same,MIC,[3],< 1 µg/mL
same,MIC,[4],1 to 3.5 µg/mL
same,MIC,[5],1 to 3.5 µg/mL
same,MIC,[6],12.5 to 150 µg/mL
same,MIC,[7],12.5 to 150 µg/mL
same,MIC,[8],1 to 3.5 µg/mL
same,MIC,[9],< 1 µg/mL
same,MIC,[10],< 1 µg/mL
same,MIC,[11],3.5 to 12.5 µg/mL
same,MIC,[12],< 1 µg/mL
same,MIC,[13],12.5 to 150 µg/mL
same,MIC,[14],12.5 to 150 µg/mL
